For test [1], the system named is lipase derived from Propionibacterium. In words: Lipase inhibitory activity (2), partially purified lipase, paranitrophenyl palmitate substrate. The test is classed as biochemical, Propionibacterium acnes JCM6425. The following applies: for Inhibitory Ratio: P. acnes lipase, pH 6.5, 30° C., 120 minutes. On the procedure:
The activity of inhibiting lipase derived from Propionibacterium of the ascorbic acid-2-phosphate zinc salt, the ascorbic acid-2-phosphate and zinc salt mixture and the ascorbic acid-2-glucoside and zinc salt mixture of the present invention was examined.
The culture solution of Propionibacterium acnes JCM6425 cultured in the same manner as in Example 7 was dialyzed with 50 mM phosphate buffer, then concentrated to about 1/10 the amount using an ultrafiltration film having a fraction molecular weight of 10,000 and used as the lipase partially purified product.
(§1) To 1.9 ml of 50 mM HEPES buffer (pH: 6.5) separately placed in a small test tube, 0.1 ml of the lipase partially purified product was added and thereto, APZ, AP+Zn and AG+Zn prepared in Examples 1 to 3, APM and AG were added each to have concentrations of 0.1 mg/ml, 1 mg/ml and 10 mg/ml. The reaction was started by addition of a substrate paranitrophenyl palmitate at a final concentration of 0.14 mg/ml. The reaction was performed at 30° C. for 120 minutes under shaking. After completion of the reaction, the absorbance at a wavelength of 405 nm was measured and the difference from the absorbance of a control test tube where the substrate was not present was used as the activity. The ratio between activity when a sample was present and activity when the sample was not present was calculated as the inhibitory ratio of each sample and the values obtained were compared.

For test [2], the system named is Staphylococcus aureus IFO12732 strain. Nature of the test: Minimum inhibitory concentration (MIC) against Staphylococcus, turbidity of culture. The test is classed as cell-based. As for the experimental part: A platinum-loopful of cells of fresh Staphylococcus aureus IFO12732 strain were inoculated in a test tube containing 5 ml of nutrient broth medium (produced by Difco) previously sterilized and deaerated. […] After the completion of cultivation, the turbidity of the culture solution was measured. The minimum concentration when turbidity was not increased by the cultivation was used as the minimum inhibitory concentration (MIC).

The test system of test [3] is hyaluronidase derived from Propionibacterium. Nature of the test: Hyaluronidase inhibitory activity, partially purified enzyme, hyaluronic acid substrate. Conditions: for Inhibitory Ratio: P. acnes hyaluronidase, pH 7.0, 30° C., 15 minutes. It is filed as biochemical, Propionibacterium acnes JCM6425. On the procedure: The activity of inhibiting hyaluronidase derived from Propionibacterium of the ascorbic acid-2-phosphate zinc salt, the ascorbic acid-2-phosphate and zinc salt mixture and the ascorbic acid-2-glucoside and zinc salt mixture of the present invention was examined.
The culture solution of Propionibacterium acnes JCM6425 cultured in the same manner as in Example 7 was dialyzed with 50 mM phosphate buffer, then concentrated to about 1/10 the amount using a membrane having a fraction molecular weight of 10,000 and used as the hyaluronidase partially purified product.
To 1.8 ml of 50 mM HEPES buffer (pH: 7.0) separately placed in a small test tube, 0.2 ml of the […] partially purified product was added and thereto, APZ, AP+Zn and AG+Zn prepared in Examples 1 to 3, APM and AG were added each to have concentrations of 0.1 mg/ml, 1 mg/ml and 10 mg/ml. The reaction was started by addition of a substrate hyaluronic acid at a final concentration of 0.8 mg/ml. The reaction was performed at 30° C. for 15 minutes under shaking. After the shaking, 0.1 ml of 0.2M potassium tetraborate was added, kept at 100° C. for 3 minutes and cooled. To this solution, 3 ml of a paradimethylaminobenzaldehyde reagent (obtained by mixing and dissolving 10 g of dimethylaminobenzaldehyde, 12.5 ml of 10N hydrochloric acid and 77.5 ml of glacial acetic acid) 10 times diluted with glacial acetic acid was added and left standing at 37° C. for 20 minutes to allow reaction with N-acetylglucosamine liberated to proceed and thereby cause coloring. The absorbance at a wavelength of 544 nm was measured and the difference from the absorbance of a control test tube where the substrate was not present was used as the activity. The ratio between activity when a sample was present and activity when the sample was not present was calculated as the inhibitory ratio of each sample and the values obtained were compared.

The test system of test [4] is Pseudomonas-derived lipase type XIII. Nature of the test: Lipase inhibitory activity (1), paranitrophenyl palmitate substrate. The test is classed as biochemical. The following applies: for Inhibitory Ratio: Pseudomonas lipase, pH 7.0, 30° C., 10 minutes. As for the experimental part:
The activity of inhibiting lipase derived from Pseudomonas of the ascorbic acid-2-phosphate zinc salt, the ascorbic acid-2-phosphate and zinc salt mixture and the ascorbic acid-2-glucoside and zinc salt mixture of the present invention was examined.
as §1, with “Pseudomonas-derived lipase type XIII (produced by Sigma) was dissolved in 100 mM phosphate buffer (pH: 7.0) to have a final concentration of 43 mU/ml. 2” for “To 1.9”, “the resulting solution was poured” for “50 mM HEPES buffer (pH: 6.5) separately placed”, “tube” for “tube, 0.1 ml of the lipase partially purified product was added”, “prepared as” for “prepared”, “of” for “of 0.1 mg/ml,”, “10” for “120”

Test [5] relates to Propionibacterium acnes JCM6425 strain. In words: Minimum inhibitory concentration (MIC) against Propionibacterium, turbidity of culture. It is filed as cell-based. On the procedure: By the measurement of minimum inhibitory concentration (MIC), the ascorbic acid-2-phosphate zinc salt, the ascorbic acid-2-phosphate and zinc salt mixture and the ascorbic acid-2-glucoside and zinc salt mixture of the present invention were determined on their antibacterial action against Propionibacterium.
A platinum-loopful of cells of fresh Propionibacterium acnes JCM6425 strain were inoculated in a test tube containing 5 ml of GAM broth medium (produced by Nissui K.K.) previously sterilized and deaerated. Thereto, APZ, AP+Zn and AG+Zn prepared as in Examples 1 to 3, APM and AG, each diluted in a common ratio of 2 to have a concentration of from 10 to 0.078 mg/ml, were added and cultured at 35° C. for 72 hours under anaerobic conditions. After completion of cultivation, the test tube was thoroughly shaken and the turbidity of the culture solution was measured. The minimum concentration when the turbidity was not increased by cultivation was used as the minimum inhibitory concentration (MIC).

SMILES strings stand for the structures. Values after ≈ are worked out from the molar mass of the structure shown. Read-outs that look alike come from different tables or passages of the source.

What is called MIC is the least concentration at which growth counts as inhibited.

Consider `O=C1OC(C(O)CO)C2=C1OP(=O)([O][Zn][O]P1(=O)[O][Zn][O]C3=C(O1)C(=O)OC3C(O)CO)[O][Zn][O]2` (centres unmarked), for which the “lipase inhibitory activity (in words)” value is given as “verified to have strong lipase inhibitory activity” in test [1] (Propionibacterium-derived lipase, summary of Table 4) and “verified to have lipase inhibitory activity” in test [4] (Pseudomonas-derived lipase, summary of Table 3). The “Inhibitory Ratio” value in test [1] (sample 0.1 mg/ml) turned out to be 93%; in test [1] (sample 1 mg/ml), 100%; in test [1] (sample 10 mg/ml) it was 100%; in test [3] (sample 0.1 mg/ml), 80%; in test [3] (sample 1 mg/ml) it was 98%; in test [3] (sample 10 mg/ml), 100%. For the same molecule, the “Inhibitory Ratio” value is 76% in test [4] (sample 1 mg/ml) and 98% in test [4] (sample 10 mg/ml). Moreover, the MIC turned out to be 625 µg/mL in test [2] (Staphylococcus aureus, IFO12732, 48 h) and 313 µg/mL in test [5] (Cutibacterium acnes, JCM6425, 72 h). For the same molecule, the “antibacterial action against Staphylococcus (in words)” value in test [2] (summary of Table 2) is given as “verified to have antibacterial action”. For the same molecule, in test [3] (Propionibacterium-derived hyaluronidase, summary of Table 5), the “hyaluronidase inhibitory activity (in words)” value is listed as “verified to have strong hyaluronidase inhibitory activity”. Moreover, the “antibacterial activity against Propionibacterium (in words)” value in test [5] (summary of Table 1) is reported as “verified to have antibacterial activity”.

Regarding `O=C1O[C@H]([C@@H](O)CO)C(O)=C1O[C@H]1O[C@H](CO)[C@@H](O)[C@H](O)[C@H]1O` [AG, L-ascorbic acid-2-O-glucoside], the “Inhibitory Ratio” value in test [1] (sample 0.1 mg/ml) is given as 0%; in test [1] (sample 1 mg/ml) it was 0%; in test [1] (sample 10 mg/ml) it was 0%; in test [3] (sample 0.1 mg/ml) it was 10%; in test [3] (sample 1 mg/ml), 13%; in test [3] (sample 10 mg/ml), 22%. The “Inhibitory Ratio” value in test [4] (sample 1 mg/ml) and in test [4] (sample 10 mg/ml) was 0% throughout. Further, the MIC in test [2] (Staphylococcus aureus IFO12732, nutrient broth, 35° C., 48 hours, shaking) is 10000 µg/mL (≈ 29.6 mM); in test [5] (Propionibacterium acnes JCM6425, GAM broth, 35° C., 72 hours, anaerobic) it was over 10000 µg/mL.

Regarding `O=C1O[C@H]([C@@H](O)CO)C(O)=C1OP(=O)([O-])[O-].[Mg+2]` [APM, L-ascorbic acid-2-phosphate magnesium salt], the “Inhibitory Ratio” value was 0% in test [1] (sample 0.1 mg/ml); 0% in test [1] (sample 1 mg/ml); 0% in test [1] (sample 10 mg/ml); 22% in test [3] (sample 0.1 mg/ml); 32% in test [3] (sample 1 mg/ml); 34% in test [3] (sample 10 mg/ml). The “Inhibitory Ratio” value in test [4] (sample 1 mg/ml) and in test [4] (sample 10 mg/ml) was 0% throughout. For the same molecule, the MIC in test [2] (Staphylococcus aureus IFO12732, nutrient broth, 35° C., 48 hours, shaking, read-out: MIC) was 10000 µg/mL; in test [5] (Cutibacterium acnes, Propionibacterium acnes JCM6425, GAM broth, 35° C., 72 hours, anaerobic, read-out: MIC), over 10000 µg/mL.

(Values after US20030162760A1 (priority 1999, published 2003).)
